According to patent publication US11725036B2, “Modified lipidated relaxin B chain peptides and their therapeutic use” (Sanofi, priority 2018, dated 2023):
Converted amounts (≈) assume the structure as drawn. Like-named read-outs stand apart in the source and are kept apart here. Starred links: 1 amine or outer side, 2 acyl side, 3 side chain; linkers in the order of their positions; H or OH if unused. Non-standard residues stand in square brackets, D forms with d. Residues, ends and D or L forms follow the SMILES beside them. Groups on a side chain read outwards from the residue. *: point of attachment. X5 = CCCCCCCCCCCCCCCC(=O)N[C@@H](CCC(=O)N[C@@H](CCC(=O)N[C@@H](CCC(=O)NCCCOCCOCCOCCCNC(=O)CCC(=O)NCCCOCCOCCOCCCNC(=O)CCC(=O)NCCCOCCOCCOCCCNC(=O)CCC(=O)NCCCOCCOCCOCCCN*)C(=O)O)C(=O)O)C(=O)O; X1 = CCCCCCCCCCCCCCCC(=O)N[C@@H](CCC(=O)N[C@@H](CCC(=O)N[C@@H](CCC(=O)NCCCOCCOCCOCCCNC(=O)CCC(=O)NCCCOCCOCCOCCCNC(=O)CCC(=O)NCCCOCCOCCOCCCN*)C(=O)O)C(=O)O)C(=O)O; γGlu = O=C(O)[C@H](CCC(=O)[*:2])N[*:1]; Stearoyl = CCCCCCCCCCCCCCCCCC(=O)*; Suc = O=C(CCC(=O)[*:2])[*:1]; αMeK = C[C@](N)(CCCCN)C(=O)O; AEEA = NCCOCCOCC(=O)O; Aib = CC(C)(N)C(=O)O

Legend:
[1] = target: T1, RXFP1 (Homo sapiens, UniProt Q9HBX9); assay: OVCAR5 cAMP assay (HTRF); type: cell-based; settings: for EC50: OVCAR 5 cells expressing endogenous RXFP1, cAMP readout; for Emax: OVCAR 5 cells, maximal cAMP relative to H2-relaxin
T1 construct: OVCAR5 cells expressing endogenous RXFP1; endogenous in cells; host or cells: OVCAR5
T1 sequence (Q9HBX9 1-757): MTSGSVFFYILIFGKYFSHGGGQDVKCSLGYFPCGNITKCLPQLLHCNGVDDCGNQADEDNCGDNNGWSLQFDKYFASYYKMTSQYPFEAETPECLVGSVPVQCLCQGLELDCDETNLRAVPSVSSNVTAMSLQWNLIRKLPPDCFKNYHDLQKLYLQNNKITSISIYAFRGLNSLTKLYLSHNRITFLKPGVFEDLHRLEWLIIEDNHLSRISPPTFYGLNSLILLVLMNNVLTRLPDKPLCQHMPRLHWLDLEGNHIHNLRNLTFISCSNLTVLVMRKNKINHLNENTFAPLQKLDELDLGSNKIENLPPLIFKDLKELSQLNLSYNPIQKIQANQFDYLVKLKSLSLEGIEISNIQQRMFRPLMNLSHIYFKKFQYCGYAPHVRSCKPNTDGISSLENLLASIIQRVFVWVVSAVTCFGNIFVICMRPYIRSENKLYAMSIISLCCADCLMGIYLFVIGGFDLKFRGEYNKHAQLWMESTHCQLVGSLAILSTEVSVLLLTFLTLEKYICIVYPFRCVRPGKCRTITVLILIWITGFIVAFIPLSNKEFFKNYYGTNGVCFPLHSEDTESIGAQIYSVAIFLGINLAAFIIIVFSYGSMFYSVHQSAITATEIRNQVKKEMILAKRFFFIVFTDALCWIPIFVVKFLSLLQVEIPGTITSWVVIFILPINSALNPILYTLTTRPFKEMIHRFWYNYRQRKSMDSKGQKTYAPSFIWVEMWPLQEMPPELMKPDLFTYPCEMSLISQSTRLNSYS
Outline: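 Peptide agonism measured as intracellular cAMP (HTRF) after 30 min at 37° C in serum-free medium, following 40 min 1 mM IBMX preincubation of OVCAR5 cells. Nonlinear regression gave EC50; Emax % = 100 × compound maximal cAMP / H2-relaxin maximal cAMP.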

[2] = Solubility testing in buffer; type: physicochemical; settings: target solubility 10.0 mg/ml
Experimental: Prior to the testing of solubility of a peptide batch, its purity (HPLC-UV) was determined.
Acetate Buffer 50 mM pH4.5: 0.75 g C2H3C02Na,3H2O (Sigma S7545)+0.35 ml CH3CO2H 100% solution dissolved in Millipore water, adjusted to pH with diluted (1:1) CH3CO2H and diluted to 250 ml with Millipore water.
In a 4 ml Ependorph vial, an accurately weighed sample of compound was diluted in study media to obtain target concentration of 2, 6 or 10 mg/ml of pure compound. The sample vials were shacked (rock 'roll shaker) for ˜19 h. 300 μL aliquots were filtered through a Millipore “Solvinert” plate (0.45 μm-PTFE hydrophilic).
pH was measured with a micro electrode
Waters Acquity UPLC System with DAD detector
Column: Waters Peptide Column CSH C18 (130 Å; 1.7 μm; 50*2.1 mm)
Column temperature: 60° C.
Full loop (about 5 μL)—overfill factor 5
Weak et Strong wash: H2O/ACN (75/25; V/V); Seal wash: H2O/IsOH (95/5; V/V). Mobile phase:
Solvent A: 0.05% TFA in H2O; Solvent B: 0.035% TFA in CH3CN
Gradient: from 0 to 12 min B=2% to 60%, from 12 to 14 min B=60% to 100%. Column washing 100% B 1 min, column equilibration 2% B 2.5 min.
UV detector: wavelength: 220 nm.

[3] = acetate buffer 50 mM pH 4.5, read-out: Solubility Acetate buffer pH 4.5
[4] = phosphate buffer 50 mM pH 7.4, read-out: Solubility phosphate buffer pH 7.4

Row | SMILES | EC50 [1] | Emax [1] | solubility [2, 3] | solubility [2, 4]
1 | CCCCCCCCCCCCCCCCCC(=O)N[C@@H](CCC(=O)N[C@@H](CCC(=O)N[C@@H](CCC(=O)NCCOCCOCC(=O)NCCOCCOCC(=O)NCCOCCOCC(=O)NCCOCCOCC(=O)NCCCC[C@H](NC(=O)CNC(=O)[C@H](CCC(=O)O)NC(=O)C(C)(C)NC(=O)C(C)(C)NC(=O)[C@@H](NC(=O)[C@H](CCCCNC(C)=O)NC(=O)[C@H](C)NC(=O)[C@H](CCCNC(=N)N)NC(=O)[C@@H](NC(=O)[C@H](CCCCN)NC(=O)[C@H](CCC(=O)O)NC(=O)[C@H](CCCNC(=N)N)NC(=O)CNC(=O)[C@H](CCC(=O)O)NC(=O)[C@H](CC(C)C)NC(C)=O)C(C)C)[C@@H](C)CC)C(=O)N[C@@H](CO)C(=O)N[C@H](C(=O)N[C@@H](Cc1ccccc1)C(=O)N[C@@H](CO)C(=O)N[C@@](C)(CCCCN)C(=O)N[C@@H](CCCNC(=N)N)C(=O)N[C@@H](C)C(=O)N[C@@H](CCCCNC(C)=O)C(N)=O)[C@@H](C)O)C(=O)O)C(=O)O)C(=O)O [compound 26] (Ac-LEGREKVRAK(Ac)I[Aib][Aib]EGK([AEEA-AEEA-AEEA-AEEA-γGlu-γGlu-γGlu-Stearoyl])STFS[αMeK]RAK(Ac)-NH2) | 0.43 nM | 96% | 6680 µg/mL (≈ 1640 µM) | 6760 µg/mL (≈ 1660 µM)
2 | CCCCCCCCCCCCCCCC(=O)N[C@@H](CCC(=O)N[C@@H](CCC(=O)N[C@@H](CCC(=O)NCCCOCCOCCOCCCNC(=O)CCC(=O)NCCCOCCOCCOCCCNC(=O)CCC(=O)NCCCOCCOCCOCCCNC(=O)CCC(=O)NCCCC[C@H](NC(=O)CNC(=O)[C@H](CCC(=O)O)NC(=O)C(C)(C)NC(=O)C(C)(C)NC(=O)[C@@H](NC(=O)[C@H](CCCCNC(C)=O)NC(=O)[C@H](C)NC(=O)[C@H](CCCNC(=N)N)NC(=O)[C@@H](NC(=O)[C@H](CCCCN)NC(=O)[C@H](CCC(=O)O)NC(=O)[C@H](CCCNC(=N)N)NC(=O)CNC(=O)[C@H](CCC(=O)O)NC(=O)[C@H](CC(C)C)NC(C)=O)C(C)C)[C@@H](C)CC)C(=O)N[C@@H](CO)C(=O)N[C@H](C(=O)N[C@@H](Cc1c[nH]c2ccccc12)C(=O)N[C@H](CO)C(=O)N[C@@H](CCCCN)C(=O)N[C@@H](CCCNC(=N)N)C(=O)N[C@@H](C)C(=O)N[C@@H](CCCCNC(C)=O)C(N)=O)[C@@H](C)O)C(=O)O)C(=O)O)C(=O)O [compound 44] (Ac-LEGREKVRAK(Ac)I[Aib][Aib]EGK([Suc-X1])STW[dS]KRAK(Ac)-NH2) | 2.2 nM | 97% | 11100 µg/mL (≈ 2520 µM) | 10700 µg/mL (≈ 2440 µM)
3 | CCCCCCCCCCCCCCCC(=O)N[C@@H](CCC(=O)N[C@@H](CCC(=O)N[C@@H](CCC(=O)NCCCOCCOCCOCCCNC(=O)CCC(=O)NCCCOCCOCCOCCCNC(=O)CCC(=O)NCCCOCCOCCOCCCNC(=O)CCC(=O)NCCCC[C@H](NC(=O)CNC(=O)[C@H](CCC(=O)O)NC(=O)[C@@H](NC(=O)C(C)(C)NC(=O)[C@@H](NC(=O)[C@H](CCCCNC(C)=O)NC(=O)[C@H](C)NC(=O)[C@H](CCCNC(=N)N)NC(=O)[C@@H](NC(=O)[C@H](CCCCN)NC(=O)[C@H](CCC(=O)O)NC(=O)[C@H](CCCNC(=N)N)NC(=O)CNC(=O)[C@H](CCC(=O)O)NC(=O)[C@H](CC(C)C)NC(C)=O)C(C)C)[C@@H](C)CC)[C@@H](C)CC)C(=O)N[C@@H](CO)C(=O)N[C@H](C(=O)N[C@@H](Cc1c[nH]c2ccccc12)C(=O)N[C@@H](CO)C(=O)NC(C)(C)C(=O)N[C@@H](CCCNC(=N)N)C(=O)N[C@@H](CCCCN)C(=O)N[C@@H](CCCCNC(C)=O)C(N)=O)[C@@H](C)O)C(=O)O)C(=O)O)C(=O)O [compound 70] (Ac-LEGREKVRAK(Ac)I[Aib]IEGK([Suc-X1])STWS[Aib]RKK(Ac)-NH2) | 1.34 nM | 94% | 8240 µg/mL (≈ 1860 µM) | 9680 µg/mL (≈ 2190 µM)
4 | CCCCCCCCCCCCCCCC(=O)N[C@@H](CCC(=O)N[C@@H](CCC(=O)N[C@@H](CCC(=O)NCCCOCCOCCOCCCNC(=O)CCC(=O)NCCCOCCOCCOCCCNC(=O)CCC(=O)NCCCOCCOCCOCCCNC(=O)CCC(=O)NCCCC[C@H](NC(=O)CNC(=O)[C@H](CCC(=O)O)NC(=O)C(C)(C)NC(=O)C(C)(C)NC(=O)[C@@H](NC(=O)[C@H](CCCCNC(C)=O)NC(=O)[C@H](C)NC(=O)[C@H](CCCNC(=N)N)NC(=O)[C@@H](NC(=O)[C@H](CCCCN)NC(=O)[C@H](CCC(=O)O)NC(=O)[C@H](CCCNC(=N)N)NC(=O)CNC(=O)[C@H](CCC(=O)O)NC(=O)[C@H](CC(C)C)NC(C)=O)C(C)C)[C@@H](C)CC)C(=O)N[C@@H](CO)C(=O)N[C@H](C(=O)N[C@@H](Cc1c[nH]c2ccccc12)C(=O)N[C@@H](CO)C(=O)NC(C)(C)C(=O)N[C@@H](CCCNC(=N)N)C(=O)N[C@@H](C)C(=O)N[C@@H](CCCCN)C(N)=O)[C@@H](C)O)C(=O)O)C(=O)O)C(=O)O [compound 71] (Ac-LEGREKVRAK(Ac)I[Aib][Aib]EGK([Suc-X1])STWS[Aib]RAK-NH2) | 0.36 nM | 95% | 8280 µg/mL (≈ 1930 µM) | 8770 µg/mL (≈ 2040 µM)
5 | CCCCCCCCCCCCCCCC(=O)N[C@@H](CCC(=O)N[C@@H](CCC(=O)N[C@@H](CCC(=O)NCCCOCCOCCOCCCNC(=O)CCC(=O)NCCCOCCOCCOCCCNC(=O)CCC(=O)NCCCOCCOCCOCCCNC(=O)CCC(=O)NCCCC[C@H](NC(=O)CNC(=O)[C@H](CCC(=O)O)NC(=O)C(C)(C)NC(=O)C(C)(C)NC(=O)[C@@H](NC(=O)[C@H](CCCCNC(C)=O)NC(=O)[C@H](C)NC(=O)[C@H](CCCNC(=N)N)NC(=O)[C@@H](NC(=O)[C@H](CCCCN)NC(=O)[C@H](CCC(=O)O)NC(=O)[C@H](CCCNC(=N)N)NC(=O)CNC(=O)[C@H](CCC(=O)O)NC(=O)[C@H](CC(C)C)NC(C)=O)C(C)C)[C@@H](C)CC)C(=O)N[C@@H](CO)C(=O)N[C@H](C(=O)N[C@@H](Cc1ccccc1)C(=O)NC(C)(C)C(=O)N[C@@H](CCCNC(=N)N)C(=O)N[C@@H](CCCNC(=N)N)C(=O)N[C@@H](C)C(=O)N[C@@H](CCCCNC(C)=O)C(N)=O)[C@@H](C)O)C(=O)O)C(=O)O)C(=O)O [compound 72] (Ac-LEGREKVRAK(Ac)I[Aib][Aib]EGK([Suc-X1])STF[Aib]RRAK(Ac)-NH2) | 0.56 nM | 91% | 8250 µg/mL (≈ 1890 µM) | 8720 µg/mL (≈ 1990 µM)
6 | CCCCCCCCCCCCCCCC(=O)N[C@@H](CCC(=O)N[C@@H](CCC(=O)N[C@@H](CCC(=O)NCCCOCCOCCOCCCNC(=O)CCC(=O)NCCCOCCOCCOCCCNC(=O)CCC(=O)NCCCOCCOCCOCCCNC(=O)CCC(=O)NCCCOCCOCCOCCCNC(=O)CCC(=O)NCCCC[C@H](NC(=O)CNC(=O)[C@H](CCC(=O)O)NC(=O)[C@@H](NC(=O)C(C)(C)NC(=O)[C@@H](NC(=O)[C@H](CCCCNC(C)=O)NC(=O)[C@H](C)NC(=O)[C@H](CCCNC(=N)N)NC(=O)[C@@H](NC(=O)[C@H](CCCCN)NC(=O)[C@H](CCC(=O)O)NC(=O)[C@H](CCCNC(=N)N)NC(=O)CNC(=O)[C@H](CCC(=O)O)NC(=O)[C@H](CC(C)C)NC(C)=O)C(C)C)[C@@H](C)CC)[C@@H](C)CC)C(=O)N[C@@H](CO)C(=O)N[C@H](C(=O)N[C@@H](Cc1c[nH]c2ccccc12)C(=O)N[C@@H](CO)C(=O)NC(C)(C)C(=O)N[C@@H](CCCNC(=N)N)C(=O)N[C@@H](CCCCN)C(=O)N[C@@H](CCCCNC(C)=O)C(N)=O)[C@@H](C)O)C(=O)O)C(=O)O)C(=O)O [compound 74] (Ac-LEGREKVRAK(Ac)I[Aib]IEGK([Suc-X5])STWS[Aib]RKK(Ac)-NH2) | 0.54 nM | 94% | 7390 µg/mL (≈ 1560 µM) | 8470 µg/mL (≈ 1790 µM)
